For twelve compounds, IC50 and CC50 results are on record in patent publication US11697650B2, “Compounds having tetrahydroindolizine-1-carboxamide as BCL-2 inhibitors” (Eil Therapeutics, Inc., priority 2021, dated 2023).

The pIC50 is the IC50 on a negative log10 scale, so that one unit is a factor of ten. By CC50 is commonly meant the concentration that lowers cell viability or growth by half.

pIC50: −log10 of the molar value. A value given as a limit tells only on which side of the number the result lay.

One data set deals with BCL-2 (Homo sapiens (Human), UniProt P10415). Nature of the data set: BCL-2 TR-FRET Assay (primary PPI inhibition). Format: binding. The conditions noted are these: 60 min incubation; read-out: BCL2 (IC50 code, BCL-2 TR-FRET). As to the method:
BCL-2 TR-FRET Assay (BPS Bioscience, #50222)
The following assay concentrations and times were used: 3 ng BCL-2, 5 μl of 1:100 anti-His Tb-labeled donor, 5 μl of 1:100 Dye-labeled acceptor, 5 μl of 1:40 BCL-2 Peptide Ligand, and 2 ul of test compound, with 60 min incubation time. The results of the assay were read using a Clariostar (BMG Labtech) plate reader with the following parameters: TR FRET, 340ex/620 and 665em; 60 μsec Delay; and 500 μsec integration.
On the technique in general: In TR-FRET formats the signal depends on donor and acceptor labels being close together.

In another data set the target is BCL-XL (Homo sapiens (Human), UniProt Q07817). Kind of data set: BCL-XL TR-FRET Assay (primary PPI inhibition). It counts as binding. The conditions noted are these: 60 min incubation; read-out: BCLxL (IC50 code, BCL-XL TR-FRET). As to the method: BCL-XL TR-FRET Assay (BPS Bioscience, #50223)
The following assay concentrations and times were used: 10.5 ng BCL-XL, 5 μl of 1:100 anti-His Tb-labeled donor, 5 μl of 1:100 Dye-labeled acceptor, 5 μl of 1:80 BCL-XL Peptide Ligand, and 2 μl of test compound, with 60 min incubation time. The results of the assay were read using a Clariostar (BMG Labtech) plate reader with the following parameters: TR FRET, 340ex/620 and 665em; 60 μsec Delay; and 500 μsec integration.

The next data set concerns RS4-11 cells. Nature of the data set: Cell viability assay (CellTiter-Glo), RS4-11. The conditions noted are these: Homo sapiens, 72 h, 3 days, read-out: RS4-11 (CC50 code). Format: cell-based. As for the experimental part:
(§1) Culture medium for HEK293—DMEM (PanEco, Cat #C420) was used. RPMI-1640 (PanEco, Cat #C363) was used for the rest of the cell lines.
(§2) Compounds were prepared as 200× stocks with serial dilution in 100% DMSO with a final concentration of 1×.
(§3) […] were dispersed in 40 μL aliquots in 384-well plates at a concentration of 2000 cells per well for HEK293 and at a concentration of 4000 cells per well for the rest of the cell lines using a robotic station Biomek (Beckman). Before adding compounds, the cells were incubated at 37° C. (HEK293 were incubated for a day before adding compounds).
(§4) A dilution plate was prepared by pouring 78 μL of the appropriate culture medium using a robotic station Biomek (Beckman). Sequentially, using a robotic station, 2 μL of substances were taken and added to 78 μL of culture medium (dilution of compounds 40×). 10 μL aliquots were taken and added to the plates of the cells (dilution of compounds 5×). The plates were incubated for 3 days at a temperature 37° C. After 3 days, 10 μL of CellTiter-Glo (Promega) was added to the cells and the luminescence was measured.
On the technique in general: In ATP-based viability assays light output follows the ATP content of the culture.

A short description of data set [1]: Cell viability assay (CellTiter-Glo), HEK293. Format: cell-based. As to conditions: human, HEK293 cells, read-out: HEK293 (CC50 code). As to the method: as §1, §2, §3, §4
For another data set, the system named is MOLT-4 cells. Kind of data set: Cell viability assay (CellTiter-Glo), MOLT-4. Format: cell-based. The conditions noted are these: Homo sapiens, 72 h, 3 days, read-out: MOLT-4 (CC50 code). As for the experimental part:
as §1, §2, §3, §4

BCL-XL, sequence (Q07817 whole entry): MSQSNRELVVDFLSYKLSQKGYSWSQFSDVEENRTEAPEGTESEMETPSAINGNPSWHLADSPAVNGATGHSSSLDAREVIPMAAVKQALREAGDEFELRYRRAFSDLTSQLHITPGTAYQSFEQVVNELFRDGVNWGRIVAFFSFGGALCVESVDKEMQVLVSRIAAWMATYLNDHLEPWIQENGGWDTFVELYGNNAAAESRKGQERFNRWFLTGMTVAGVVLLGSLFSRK
BCL-2, sequence (P10415 whole entry): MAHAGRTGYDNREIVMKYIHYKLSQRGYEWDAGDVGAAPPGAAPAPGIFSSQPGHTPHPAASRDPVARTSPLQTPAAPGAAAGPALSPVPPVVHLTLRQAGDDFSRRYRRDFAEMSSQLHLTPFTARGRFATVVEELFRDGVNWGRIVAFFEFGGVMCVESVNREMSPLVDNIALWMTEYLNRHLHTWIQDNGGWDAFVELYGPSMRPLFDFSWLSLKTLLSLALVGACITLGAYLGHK

Take `O=C(c1cc(-c2cc3c(cc2C(=O)N2Cc4ccccc4C[C@H]2CN2CCOCC2)OCO3)n2c1CCCC2)N(Cc1c(F)cccc1C(F)(F)F)c1ccc(O)cc1` [Compound 22, N-[2-fluoro-6-(trifluoromethyl)benzyl]-N-(4-hydroxyphenyl)-3-(6-{[(3S)-3-(morpholin-4-ylmethyl)-3,4-dihydroisoquinolin-2(1H)-yl]carbonyl}-1,3-benzodioxol-5-yl)-5,6,7,8-tetrahydroindolizine-1-carboxamide]: the figures for the negative-log IC50 (pIC50) at BCL-2 and at BCL-XL were under 7.30 and under 5.40, respectively.
With `O=C(c1cc(-c2cc3c(cc2C(=O)N2Cc4ccccc4C[C@H]2CN2CCOCC2)OCO3)n2c1CCCC2)N(Cc1ccc(OC(F)(F)F)cc1)c1ccc(O)cc1` [Compound 26, N-(4-hydroxyphenyl)-3-(6-{[(3S)-3-(morpholin-4-ylmethyl)-3,4-dihydroisoquinolin-2(1H)-yl]carbonyl}-1,3-benzodioxol-5-yl)-N-[4-(trifluoromethoxy)benzyl]-5,6,7,8-tetrahydroindolizine-1-carboxamide], the pIC50 on BCL-2 was under 7.30; at BCL-XL, under 5.40.
The like results for `CCOc1ccc(-c2nc(CN(C(=O)c3cc(-c4cc5c(cc4C(=O)N4Cc6ccccc6C[C@H]4CN4CCOCC4)OCO5)n4c3CCCC4)c3ccc(O)cc3)c(C)o2)cc1` [Compound 27, N-{[2-(4-ethoxyphenyl)-5-methyl-1,3-oxazol-4-yl]methyl}-N-(4-hydroxyphenyl)-3-(6-{[(3S)-3-(morpholin-4-ylmethyl)-3,4-dihydroisoquinolin-2(1H)-yl]carbonyl}-1,3-benzodioxol-5-yl)-5,6,7,8-tetrahydroindolizine-1-carboxamide] were, in that order, under 7.30 and under 5.40.
In the case of `Cc1cccc(C)c1CN(C(=O)c1cc(-c2cc3c(cc2C(=O)N2Cc4ccccc4C[C@H]2CN2CCOCC2)OCO3)n2c1CCCC2)c1ccc(O)cc1` [Compound 30, N-(2,6-dimethylbenzyl)-N-(4-hydroxyphenyl)-3-(6-{[(3S)-3-(morpholin-4-ylmethyl)-3,4-dihydroisoquinolin-2(1H)-yl]carbonyl}-1,3-benzodioxol-5-yl)-5,6,7,8-tetrahydroindolizine-1-carboxamide], on BCL-2, the pIC50 was under 7.30.
`Cc1cccc(F)c1CN(C(=O)c1cc(-c2cc3c(cc2C(=O)N2Cc4ccccc4C[C@H]2CN2CCOCC2)OCO3)n2c1CCCC2)c1ccc(O)cc1` [Compound 32, N-(2-fluoro-6-methylbenzyl)-N-(4-hydroxyphenyl)-3-(6-{[(3S)-3-(morpholin-4-ylmethyl)-3,4-dihydroisoquinolin-2(1H)-yl]carbonyl}-1,3-benzodioxol-5-yl)-5,6,7,8-tetrahydroindolizine-1-carboxamide]: the pIC50 on BCL-2 is 7.30 to 8.00.
The same measure, in the same setting: then `Cc1ccc(C(F)(F)F)cc1CN(C(=O)c1cc(-c2cc3c(cc2C(=O)N2Cc4ccccc4C[C@H]2CN2CCOCC2)OCO3)n2c1CCCC2)c1ccc(O)cc1` [Compound 38, N-(4-hydroxyphenyl)-N-[2-methyl-5-(trifluoromethyl)benzyl]-3-(6-{[(3S)-3-(morpholin-4-ylmethyl)-3,4-dihydroisoquinolin-2(1H)-yl]carbonyl}-1,3-benzodioxol-5-yl)-5,6,7,8-tetrahydroindolizine-1-carboxamide], with 7.30 to 8.00.
On to `O=C(c1cc(-c2cc3c(cc2C(=O)N2Cc4ccccc4C[C@H]2CN2CCOCC2)OCO3)n2c1CCCC2)N(Cc1cccnc1)c1ccc(O)cc1` [Compound 39, N-(4-hydroxyphenyl)-3-(6-{[(3S)-3-(morpholin-4-ylmethyl)-3,4-dihydroisoquinolin-2(1H)-yl]carbonyl}-1,3-benzodioxol-5-yl)-N-(pyridin-3-ylmethyl)-5,6,7,8-tetrahydroindolizine-1-carboxamide], for which the half-maximal cytotoxic concentration (CC50) was over 200 nM in the data set on RS4-11 cells and at most 2000 nM in the data set with MOLT-4 cells. The CC50 at 3 days in data set [1] is 10000 to 25000 nM. The pIC50 was 8.00 to 8.30 at BCL-2 and 5.40 to 5.70 on BCL-XL.
On to `CS(=O)(=O)NC(=O)c1cccc(CN(C(=O)c2cc(-c3cc4c(cc3C(=O)N3Cc5ccccc5C[C@H]3CN3CCOCC3)OCO4)n3c2CCCC3)c2ccc(O)cc2)c1` [Compound 43, N-(4-hydroxyphenyl)-N-{3-[(methylsulfonyl)carbamoyl]benzyl}-3-(6-{[(3S)-3-(morpholin-4-ylmethyl)-3,4-dihydroisoquinolin-2(1H)-yl]carbonyl}-1,3-benzodioxol-5-yl)-5,6,7,8-tetrahydroindolizine-1-carboxamide], for which the figures for the pIC50 on BCL-2 and at BCL-XL were 8.00 to 8.30 and 5.40 to 5.70, respectively.
On to `O=C(O)c1cccc(CN(C(=O)c2cc(-c3cc4c(cc3C(=O)N3Cc5ccccc5C[C@H]3CN3CCOCC3)OCO4)n3c2CCCC3)c2ccc(O)cc2)c1` [Compound 45, 3-[(4-Hydroxy-N-[3-[6-[(3S)-3-(morpholinomethyl)-3,4-dihydro-1H-isoquinoline-2-carbonyl]-1,3-benzodioxol-5-yl]-5,6,7,8-tetrahydroindolizine-1-carbonyl]anilino)methyl]benzoic Acid], for which the 50% cytotoxic concentration (CC50) was over 200 nM in the data set on RS4-11 cells and over 10000 nM in the data set with MOLT-4 cells. Further, in data set [1], the 50% cytotoxic concentration (CC50) at 3 days is over 25000 nM. In addition, the pIC50 was 7.30 to 8.00 at BCL-2 and 5.40 to 5.70 at BCL-XL.
Consider `CC(C)(C)OC(=O)c1cccc(CN(C(=O)c2cc(-c3cc4c(cc3C(=O)N3Cc5ccccc5C[C@H]3CN3CCOCC3)OCO4)n3c2CCCC3)c2ccc(O)cc2)c1` [Compound 46, tert-Butyl 3-[(4-hydroxy-N-[3-[6-[(3S)-3-(morpholinomethyl)-3,4-dihydro-1H-isoquinoline-2-carbonyl]-1,3-benzodioxol-5-yl]-5,6,7,8-tetrahydroindolizine-1-carbonyl]anilino)methyl]benzoate], for which the pIC50 at BCL-2 was 7.30 to 8.00.
As for `N#Cc1ccccc1CN(C(=O)c1cc(-c2cc3c(cc2C(=O)N2Cc4ccccc4C[C@H]2CN2CCOCC2)OCO3)n2c1CCCC2)c1ccc(O)cc1` [Compound 47, N-[(2-Cyanophenyl)methyl]-N-(4-hydroxyphenyl)-3-[6-[(3S)-3-(morpholinomethyl)-3,4-dihydro-1H-isoquinoline-2-carbonyl]-1,3-benzodioxol-5-yl]-5,6,7,8-tetrahydroindolizine-1-carboxamide], the pIC50 on BCL-2 was under 7.30.
`O=C(c1cc(-c2cc3c(cc2C(=O)N2Cc4ccccc4C[C@H]2CN2CCOCC2)OCO3)n2c1CCCC2)N(Cc1cccc([N+](=O)[O-])c1)c1ccc(O)cc1` [Compound 49, N-(4-Hydroxyphenyl)-3-[6-[(3S)-3-(morpholinomethyl)-3,4-dihydro-1H-isoquinoline-2-carbonyl]-1,3-benzodioxol-5-yl]-N-[(3-nitrophenyl)methyl]-5,6,7,8-tetrahydroindolizine-1-carboxamide]: the figures for the CC50 with RS4-11 cells and in the data set with MOLT-4 cells were over 200 nM and over 10000 nM, respectively. The CC50 at 3 days in data set [1] was over 25000 nM. The pIC50 is under 7.30 on BCL-2 and under 5.40 on BCL-XL.
